Data from patent US12428681B2, “Markers of totipotency and methods of use” (AGENCY FOR SCIENCE, TECHNOLOGY AND RESEARCH, priority 2017, dated 2025).

Key:
Format in all cases: cell-based, mouse
NELFA reporter mESCs [1] = assay: Immunofluorescence for 2C-like markers and H1-mCherry in NELFA reporter mESCs
Description: (§1) Unless otherwise stated, all mESC lines were cultured in serum-containing ESC medium containing Knockout DMEM, 15% FCS, L-Glutamine, non-essential amino acids, penicillin/streptomycin, 2-mercaptoethanol and supplemented with LIF, 1 μM PD0325901 and 3 µM CHIR99021 (2i′). For serum-free ‘naïve’ culture condition, mESCs were grown in N2B27 medium supplemented with LIF and 2i. For 2-DG experiments, ESCs were grown in serum-containing ESC medium with 4 mM 2-DG (Sigma; D8375) for up to 4 days. For MYC inhibitor treatment, ESCs were grown in serum-containing ESC medium with […] MYC inhibitor, 10058-F4 (Abcam), for 3 days.
For generation of histone H1-mCherry stable mESCs, mouse H1e-mCherry fusion DNA sequence was ordered as a Gblock from IDT, amplified and inserted into the expression plasmid, pCAG-IRES-hygromycin. The pCAG-H1-mCherry-IRES-hygromycin plasmid was linearized with FspI and transfected into both NELFA-StrepHA-P2A-EGFP reporter mESCs and Dox-inducible pTRE-NELFA-StrepHA mESCs. Transfected cells were selected with hygromycin B (150 μg/ml) for 4 days before single colony sub-cloning.
Briefly mESCs were grown on gelatin-coated imaging dishes, fixed in 4% PFA for 10 min at room temperature, permeabilized and blocked in 0.1% TRITON™ X-100/1% BSA for 30 min. Cells were incubated in primary antibodies overnight at 4° C. followed by three washes in blocking buffer. […]

NELFA reporter mESCs [2] = assay: RNA-seq transcriptomic profiling of unsorted 2-DG-treated NELFA reporter mESCs; conditions: adjusted p-value≤0.01 and fold-change≥2
Description: as §1, with “3 days. […]” for “3 days.”
Single- and Paired-end raw sequencing reads were trimmed with Trim Galore (v0.4.2_dev; www.bioinformatics.babraham.ac.uk/projects/trim_galore/) with parameters: --trim-n (single-end, NELFA reporter mESCs) or -paired (paired-end, Doxinducible NELFA-EGFP and 2DG-treated NELFA reporter mESCs). Cleaned reads were then mapped to the mouse GRCm38 reference genome, guided by the vM9 gene model from the GENCODE project using the RSEM pipeline (v1.1.11). […] Reads mapping and quantification of individual repetitive element expression were carried out by using the RepEnrich pipeline, which takes a two-step approach. Briefly, reads were mapped to the mouse genome (mm10) by Bowtie (v1.1.2), and separated into multiple-mapped and uniquely mapped reads. […]

[3] = system: NELFA-Strep-HA-P2A-EGFP mESCs; assay: Flow cytometry of NELFA^high subpopulation in NELFA reporter mESCs
Description: as §1
Mouse ES cells are grown in standard culture medium containing 4 mM of 2-DG inhibitor for 4 days, at 37° C. with 5% CO2. Culture medium containing 2-DG is changed every day during the induction. […] In a second system, where NELFA is under the control of a Dox inducible promoter, the expression is induced by culturing the ES cells with culture medium containing 0.4 μg/mL of Doxycycline for 16 hours at 37° C. with 5% CO2.
For NELFA-StrepHA-P2A-EGFP reporter ESC line, a donor vector harboring a Strep-HA-P2A-EGFP cassette flanked by NELFA left and right homology arms (826 bp and 924 bp respectively) was co-transfected with the CRISPR-Cas9 sgRNA cloning vector, pX458, containing the Nelfa sgRNA sequence ([…])(SEQ ID NO: 1). Positive transfectants were GFP-sorted and targeted single clones validated by genotyping.
FACSAria Cell Sorter (BD Biosciences) was used to quantify the proportion of EGFPpositive and EGFP-negative cells from the reporter mESC lines. The Moflow sorter was used to sort EGFP-positive and EGFP-negative cells for RNA-seq and NoME-seq studies.

mESCs = assay: RT-qPCR of 2C-relevant genes in mESCs; conditions: 2-DG stimulation alone
Description: Unless otherwise stated, all mESC lines were cultured in serum-containing ESC medium containing Knockout DMEM, 15% FCS, L-Glutamine, non-essential amino acids, penicillin/streptomycin, 2-mercaptoethanol and supplemented with LIF, 1 μM PD0325901 and 3 µM CHIR99021 (2i′). For serum-free ‘naïve’ culture condition, mESCs were grown in N2B27 medium supplemented with LIF and 2i. For 2-DG experiments, ESCs were grown in serum-containing ESC medium with 4 mM 2-DG (Sigma; D8375) for up to 4 days. For MYC inhibitor treatment, ESCs were grown in serum-containing ESC medium with […] MYC inhibitor, 10058-F4 (Abcam), for 3 days. siRNAs were purchased from GE Dharmacon and Qiagen and transfected into mESCs using Lipofectamine RNAiMAX according to manufacturer's instructions. Both forward and reverse transfections were carried out. The final concentration of siRNA used was 40 nM per transfection and the effect of knockdown analyzed at 72 h. 0.5-1 μg of total RNA was used as input for cDNA preparation with the SensiFAST cDNA synthesis kit (Bioline; 65054). Reverse transcription was carried out with standard cycling condition as per manufacturer's instructions. […] Relative gene expression fold change was calculated using the delta delta CT method and statistical significance was assessed using a student's T-test.

Structure (SMILES) | expression of MERVL family of retrotransposons and Zscan4 by immunofluorescence (NELFA reporter mESCs [1]; 2-DG-treated NELFA-positive mESCs) | H1 localization on heterochromatin in NELFA^high mESCs (NELFA reporter mESCs [1]; NELFA-EGFP reporter mESCs stably expressing H1-mCherry, following 2-DG treatment) | number of genes upregulated after 2-DG treatment (NELFA reporter mESCs [2]) [genes] | increase in the NELFA^high subpopulation following 2-DG treatment ([3]; NELFA reporter mESCs, conventional culture conditions, 4 mM 2-DG, 4 days) | change in Nelfa^high ESC subpopulation (in words) ([3]; addition of 2-DG to Nelfa reporter ESCs) | induction of Gata3 by RT-qPCR (mESCs) | change in NELFA^high population (in words) ([3]; NELFA reporter mESCs, 64 µM MYC inhibitor 10058-F4, 3 days)
O=CC[C@@H](O)[C@H](O)[C@H](O)CO [2-DG, 2-deoxy-D-glucose] | upregulation | clear displacement | 175 | up to 8 fold | prominent increase | not observed | –
CCc1ccc(/C=C2/SC(=S)NC2=O)cc1 [10058-F4] | – | – | – | – | – | – | no increase
